Two compounds from US20150290193A1, “NOVEL APPROACHES FOR INDIVIDUALIZED THERAPY OF PANCREATIC DUCTAL ADENOCARCINOMA” (HI-STEM gGmbH, priority 2012, published 2015) can be followed below.

One assay relates to stable PDAC cell lines. Kind of assay: Dose-escalation IC50 determination, cell viability by CellTiterBlue. It counts as cell-based, human. The conditions noted are these: 72 h; 3-fold serial dilutions in quadruplicates.
Assay [1] has as its system PACO tumors (transplanted human PDAC tumors). Kind of assay: In vivo drug screen, subcutaneous PACO tumors in NSG mice, relative tumor volume. Particulars: tumors of all three subtypes; 125 mg/kg i.p. twice weekly.
Procedure: Three groups of mice that each carried transplanted human tumors of one either the sensitive or the resistant subtypes were treated with Dasatinib, either alone or in combination with the chemotherapeutic agent Gemcitabine.
PACO tumors were established by injecting 5×10^5 cells subcutaneously into a cohort 20 NOD.Cg-Prkdcscid Il2rgtm1Wjl (NSG) mice. After the tumors reached a size of approx. 200 mm^3, mice were randomized into two groups of each 10 mice—Control, Gemcitabine, Dasatinib or combination of both. Gemcitabine was dissolved in 0.8% buffered saline and administered twice weekly at 125 mg/kg i.p. Dasatinib was prepared in citrate/citric acid buffer (pH 3) and administered daily via oral gavage at 25 mg/kg. Tumor volume was determined twice weekly via caliper measurements and calculated according the formula (length×height×width)×(π/6). Relative tumor growth was calculated for each individual tumor in relation to the volume calculated as of the start of the experiment.
Tumor size is expressed as relative volume normalized to the day of start of treatment.

Procedure for stable PDAC cell lines: For calculation of the IC50, 3-fold serial dilutions of selected compounds were screened in quadruplicates, incubated for 72 h after which cell viability was assessed using CellTiterBlue as described. Raw data was normalized to positive and negative controls present on each individual plate IC50 values were calculated using GraphPad Prism (Graph Pad Software, La Jolla).
For calculation of the IC50 serial dilutions of selected compounds were screened in quadruplicates. In brief, 8,000 cells/well were seeded 24 h prior to addition of individual compounds in 96-well plates. After incubation for 72 h, cell viability was assessed using CellTiterBlue (Promega, Mannheim) as described. Raw data was normalized to positive and negative controls present on each individual plate. IC50 values were calculated using GraphPad Prism (Graph Pad Software, La Jolla).

Regarding `Cc1nc(Nc2ncc(C(=O)Nc3c(C)cccc3Cl)s2)cc(N2CCN(CCO)CC2)n1` [Dasatinib], in the assay with stable PDAC cell lines, the “fold lower IC50 value of the classical subtype versus exocrine-like and quasi-mesenchymal PDAC cells” value was > 10,000 fold.
With `Nc1ccn([C@@H]2O[C@H](CO)[C@@H](O)C2(F)F)c(=O)n1` [Gemcitabine], in assay [1], the “tumor growth, Gemcitabine alone” value is given as “growth-inhibitory effect on tumors of all three subtypes, however did not lead to a complete stop in tumor growth”.
